Source: the NIST ThermoML archive (doi:10.1021/acs.jced.8b00807)
± gives the expanded uncertainty stated by the source.

Assay: Boiling temperature at pressure P
Conditions: 101.3 kPa; Liquid; Ebulliometric method (Recirculating still)

SMILES	Boiling temperature at pressure P
Cc1ccc(C)cc1 [1,4-dimethylbenzene]	138.34 ± 0.2 °C
CC(=O)OCC(C)C [2-methylpropyl ethanoate]	116.40 ± 0.2 °C
CC(=O)OCCC(C)C [3-methylbutyl ethanoate]	142.00 ± 0.2 °C
COC(C)=O [methyl ethanoate]	57.1 ± 0.2 °C
